Measurements taken from the supplement of paper PMC10307832.

How the values were obtained:
Experiment in all cases: relative viability (nuclei count vs DMSO), 5 days (fraction); higher = more cells survive
Pazopanib + Olaparib = compound: Cc1ccc(Nc2nccc(N(C)c3ccc4c(C)n(C)nc4c3)n2)cc1S(N)(=O)=O [Pazopanib] + O=C(c1cc(Cc2n[nH]c(=O)c3ccccc23)ccc1F)N1CCN(C(=O)C2CC2)CC1 [Olaparib] (partner 8 µM)
In short: (§1)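 Relative viability divides the nuclei count in treated wells by that in vehicle wells. Lung cancer cell lines were seeded in 1536-well plates, dosed by pin tool the next day, and fixed and stained after 5 days in one step with final 0.05% Triton X-100, 1% formaldehyde and 1 ug/ml Hoechst. Dosing was a single drug or a fixed anchor-drug dose plus five library-drug doses (not always all listed) in √10 steps, and values are medians of duplicate plates imaged at 4×.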

Ponatinib + Vorinostat = compound: Cc1ccc(C(=O)Nc2ccc(CN3CCN(C)CC3)c(C(F)(F)F)c2)cc1C#Cc1cnc2cccnn12 [Ponatinib] + O=C(CCCCCCC(=O)Nc1ccccc1)NO [Vorinostat] (partner 1 µM)
In short: as §1

Pazopanib + Luminespib = compound: Cc1ccc(Nc2nccc(N(C)c3ccc4c(C)n(C)nc4c3)n2)cc1S(N)(=O)=O [Pazopanib] + CCNC(=O)c1noc(-c2cc(C(C)C)c(O)cc2O)c1-c1ccc(CN2CCOCC2)cc1 [Luminespib] (partner 0.01 µM)
In short: as §1

Pazopanib + Linsitinib = compound: Cc1ccc(Nc2nccc(N(C)c3ccc4c(C)n(C)nc4c3)n2)cc1S(N)(=O)=O [Pazopanib] + C[C@]1(O)C[C@@H](c2nc(-c3ccc4ccc(-c5ccccc5)nc4c3)c3c(N)nccn32)C1 [Linsitinib] (partner 1 µM)
In short: as §1

Cell Line	relative viability (Pazopanib + Olaparib; first compound 0.01 µM)	relative viability (Pazopanib + Olaparib; first compound 0.03162 µM)	relative viability (Pazopanib + Olaparib; first compound 0.1 µM)	relative viability (Pazopanib + Olaparib; first compound 0.3162 µM)	relative viability (Pazopanib + Olaparib; first compound 1 µM)	relative viability (Ponatinib + Vorinostat; first compound 0.002 µM)	relative viability (Ponatinib + Vorinostat; first compound 0.006325 µM)	relative viability (Ponatinib + Vorinostat; first compound 0.06325 µM)	relative viability (Ponatinib + Vorinostat; first compound 0.2 µM)	relative viability (Pazopanib + Luminespib; first compound 0.01 µM)	relative viability (Pazopanib + Luminespib; first compound 0.03162 µM)	relative viability (Pazopanib + Luminespib; first compound 0.1 µM)	relative viability (Pazopanib + Luminespib; first compound 0.3162 µM)	relative viability (Pazopanib + Luminespib; first compound 1 µM)	relative viability (Pazopanib + Linsitinib; first compound 0.01 µM)	relative viability (Pazopanib + Linsitinib; first compound 0.03162 µM)	relative viability (Pazopanib + Linsitinib; first compound 0.1 µM)	relative viability (Pazopanib + Linsitinib; first compound 0.3162 µM)	relative viability (Pazopanib + Linsitinib; first compound 1 µM)
NCI-H2342	0.385	0.443	0.481	0.386	0.365	0.676	0.779	0.886	0.731	0.671	0.736	0.612	0.759	0.588					
HCC-15	0.689	0.671	0.697	0.723	0.672	0.826	0.829	0.949	0.809	0.146	0.242	0.366	0.2	0.498	0.872	0.905	0.94	0.882	1.03
A-427	0.729	0.8	0.758	0.812	0.791	0.829	0.904	1.03	0.881	1.08	1.18	0.786	1.02	1.19	1.09	1.09	1.13	1.14	1.16
NCI-H2228	0.829	0.492	0.611	0.574	0.48	0.658	0.588	0.7	0.575	0.142	0.135	0.153	0.155	0.177	0.741	0.665	0.792	0.901	0.607
NCI-H1734	0.626	0.627	0.578	0.598	0.591	0.763	0.777	0.914	0.773	0.18	0.207	0.182	0.179	0.208	0.823	0.963	0.905	0.942	0.933
NCI-H2347	0.541	0.609	0.538	0.575	0.558	0.496	0.554	0.643	0.504	0.299	0.453	0.898	0.309	0.471	0.854	1.01	1.1	1.09	1.12
PC-3 [JPC-3]		1.15	1.18	1.11	1.02		0.703	0.868	0.898	0.784	0.59	0.65	0.69	0.65	0.993	0.972	0.961	0.918	0.961
NCI-H1915	0.257	0.241	0.275	0.229	0.227	0.457	0.49	0.469	0.491	0.871	0.805	0.889	0.701	0.699	1.12	1.14	1.08	1.03	0.994
NCI-H1666	0.819	0.874	0.74	0.649	0.769	0.998	1.01	1.08	0.89	1.03	1.08	0.99	1.06	1.06	1.15	0.857	0.909	0.767	1.07
HCC-366	0.31	0.357	0.396	0.396	0.35	0.329	0.318	0.416	0.317						0.472	0.73	0.674	0.828	0.885
NCI-H1395	0.428	0.44	0.461	0.446	0.473	0.483	0.578	0.678	0.416	0.566	0.588	0.642	0.781	0.62	0.983	1.27	1.07	0.992	1.05
NCI-H727	0.672		0.595	0.612	0.629	1.08	1.09	1.21	1.09	0.346	0.634	0.381	0.266	0.262	0.311	0.336	0.35	0.237	0.245
RERF-LC-KJ	0.805	0.938	0.947	0.785	0.583	0.601	0.767	0.881	0.635	1.31	1.36	1.29	1.23	1.23	0.889	0.912	0.825	0.782	0.912
NCI-H1623										0.465	0.515	0.512	0.479	0.634					
Calu-6	0.601	0.559	0.589	0.579	0.5										0.865	1.07	0.957	0.908	1.04
LC-2-ad	0.796	0.684	0.705	0.778	0.682	0.653	0.667	0.626	0.591	0.992	1.06	1.02	1.03	1.23	0.813	0.778	0.868	0.8	0.842
CAL-12T	0.854	0.783	0.694	0.74	0.707	0.958	0.666	0.864	0.876	0.434	0.321	0.974	0.426	0.783	0.83	0.927	0.792	0.941	0.981
SK-LU-1	0.392	0.483	0.441	0.525	0.55	0.699	0.76	0.832	0.702	0.222	0.221	0.175	0.22	0.232	1.02	1.22	1.17	1.27	1.11
NCI-H1650	0.895	0.838	0.723	0.852	0.844	0.642	0.539	0.654	0.65	0.195	0.189	0.235	0.195	0.187					
